# From US7557133B2, “Caspase inhibitors containing isoxazoline ring” (LG Life Sciences Ltd., priority 2003, dated 2009)
# Legend:
# [1] = system: LPS-induced acute hepatitis; assay: Therapeutic effect for LPS-induced acute hepatitis in mouse (plasma ALT); assay type: in vivo
# Experimental: Female Balb/c mice (6 weeks, Charles River Laboratory, Osaka, Japan) were kept under the conditions of 22 °C, 55% of relative humidity, and light-darkness cycle of 12 hours. Food and water were supplied ad libitum. In pyrogen-free saline were dissolved LPS (lipopolysaccaride) and D-galactosamine in concentrations of 0.4 mg/ml and 280 mg/ml, respectively, and their 1:1 mixture was injected to mice in the amount of 5 ml/kg. Immediately after the injection of LPS and D-galactosamine, vehicle (a mixture of PEG400:ethanol:Tween80=15:7.5:2.5 was diluted by five times with saline) wherein the test compound is dissolved or the vehicle alone was intraperitoneally injected into the mice. After 8 hours from the drug injection, blood samples were obtained from their hearts.
# The plasma ALT activity was determined for the blood samples obtained in Step 1 using ALT assay kit (Asan Pharm. Co., Seoul, Korea) according to the manufacturer's instruction.
# [2] = biological target: T1, caspase-9 (Homo sapiens, UniProt P55211); assay: Caspase-9 inhibitory effect (fluorescent substrate AcLEHD-AFC); assay type: biochemical; conditions: pH 7.5; 25° C., 150 μM AcLEHD-AFC, 200 nM caspase-9; read-out: Caspase-9 Kobs/[I] (converted)
# T1 construct: p10 and p20 subunits (Thornberry, N. A. et al, Nature, 1992, 356, 768) were expressed in E. coli; made in house; host or cells: E. coli
# T1 sequence (P55211 1-315 limits assumed): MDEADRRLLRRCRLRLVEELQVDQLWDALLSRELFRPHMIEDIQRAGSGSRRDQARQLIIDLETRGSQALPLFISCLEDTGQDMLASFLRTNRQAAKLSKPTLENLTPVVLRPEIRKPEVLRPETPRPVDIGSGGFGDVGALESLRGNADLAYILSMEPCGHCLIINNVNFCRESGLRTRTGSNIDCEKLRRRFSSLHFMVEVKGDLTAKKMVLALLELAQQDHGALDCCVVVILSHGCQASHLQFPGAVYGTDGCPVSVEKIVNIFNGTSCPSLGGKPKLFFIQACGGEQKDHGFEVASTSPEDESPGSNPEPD
# T1 sequence (P55211 331-416 limits assumed): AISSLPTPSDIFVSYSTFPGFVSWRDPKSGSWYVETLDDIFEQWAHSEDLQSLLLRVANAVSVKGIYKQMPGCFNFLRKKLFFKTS
# Experimental: Caspase-1 and caspase-8 known as cysteine proteases in the form of α2β2 were expressed, purified, and activated by modifying a method known in Thornberry, N. A. et al, Nature, 1992, 356, 768. Thornberry, N. A. Methods in Enzymology, 1994, 244, 615. Walker, N. P. C. et al. Cell, 1994, 78, 343, and caspase-9 was also purified by a similar method, and the inhibitory activity against them was tested. Briefly describing, p10 and p20 subunits (Thornberry, N. A. et al, Nature, 1992, 356, 768) were expressed in E. coli and purified by nickel column and anionic exchange chromatography to give caspase-1, caspase-8 and caspase-9. The fluorescent substrate AcYVAD-AFC for thus obtained caspase-1, AcDEVD-AFC for caspase-8, and AcLEHD-AFC for caspase-9 were used for determining specific activity of the synthesized inhibitors. […] The inhibitory constants Ki and Kobs of the inhibitors were determined by measuring the reaction velocity with the time lapse using a fluorescent spectrometer and by obtaining the initial rate constant. Ki was calculated from the Lineweaver Burk Plot, and Kobs from the following Equation 1. […]
# [3] = system: hepatic fibrosis; assay: Inhibitory effect against hepatic fibrosis in SD rats (biliary duct ligation, Sirius red staining); assay type: in vivo, rat; conditions: BDL rats, 3 or 10 mg/kg orally twice a day for 1 week
# Experimental: Male Spargue-Dawley rats (6 weeks, Korea Biolink) were kept under the conditions of 22 °C, 55% of relative humidity, and light-darkness cycle of 12 hours. Food and water were supplied ad libitum. For the ligation of biliary duct, the rats were anesthetized by inhalation of 1% halothane, abdomen of the rats were cut open, the distal and proximal biliary ducts were ligated, the part between the ligation sites were cut, 2 ml of saline was injected, and sutured. Test compound (Iii) was orally administered in a dosage of 3 mg/kg or 10 mg/kg twice a day. That is, the compound was dissolved in a cosolvent (PEG400:ethanol:Tween80=15:7.5:2.5), diluted with phosphate buffer (pH 7.4) by five times, and administered. To the control group was administered the solution without the test compound. The administration was made for 1 week after 1 week from the ligation of biliary duct. After the administration, the rats were sacrificed. The livers were fixed by 10% neutral formalin and a paraffin section of 5 μm thickness was prepared and stained by 0.1% Sirius red (Direct red 80, Sigma). The tissue section was investigated by an optical microscope to observe the collagen fibers stained in red, and the results are represented in FIG. 1.
# [4] = system: foot edema; assay: Antiphlogistic effect in rats (carrageenan foot edema); assay type: in vivo, rat; conditions: 3 hours after carrageenan
# Experimental: Male SD rats (6 weeks, Orient) were kept under the conditions of 22 °C, 55% of relative humidity, and light-darkness cycle of 12 hours. Food and water were supplied ad libitum. Before the induction of edema, the foot volume of each rat was measured by plethysmometer. Before the induction of edema, vehicle (a mixture of PEG400: ethanol:Tween80=15:7.5:2.5 was diluted by ten times with phosphate buffer) wherein the test compound is dissolved or the vehicle alone was orally administered into the rats. Carrageenan (gamma) was dissolved in the concentration of 1% in saline, and subcutaneously injected into the right rear foot of the rats in the dosage of 100 μl. After 3 hours, the right foot volume was measured again by plethysmometer. The effect of the test compound was shown by edema inhibition (%) (see Table 3). The edema inhibition (%) was calculated according to the following Equation 2. Edema Inhibition (%)=100×(Average of the increased foot volume in the vehicle-administered group−Increased foot volume in the test compound-administered group)/Average of the increased foot volume in the vehicle-administered group Equation 2
# [5] = Solubility (pH = 7.44 phosphate); assay type: physicochemical
compound,measurement,setting,value
"CC(C)[C@@]1(C(=O)NC(CC(=O)O)C(=O)CF)CC(c2nccc3ccccc23)=NO1 (stereo partly drawn) [Iii, 5-Fluoro-3-({[(5R)-5-isopropyl-3-(1-isoquinolinyl)-4,5-dihydro-5-isoxazolyl]carbonyl}amino)-4-oxopentanoic acid]",increased activity against LPS-induced acute hepatitis model (mouse) compared with LB84068MP,[1]; in vivo,about 100 times
same,ED50,"[1]; ip, LPS and D-galactosamine, intraperitoneally injected, plasma ALT after 8 hours, read-out: ED50 (LPS + Gal)",0.01 mg/kg
same,kinact/KI,[2],3330 M⁻¹ s⁻¹
same,fibrosis by Sirius Red staining,[3],almost no fibrosis
same,Edema inhibition effect (%) Average,[4]; 30 mg/kg oral,20.7%
same,Edema inhibition effect (%) Average,[4]; 100 mg/kg oral,22.7%
same,solubility compared with LB84068MP,[5],improved solubility
